In US12180193B2, “Accelerating fibrosarcoma protein degrading compounds and associated methods of use” (Arvinas Operations, Inc., priority 2020, dated 2024):

How the values were obtained:
BRAF G466V = target: T1, BRAF G466V (Homo sapiens, UniProt P15056, G466V); assay: Cellular assay of target protein degradation, T-Rex 293 cells stably transfected with HA-BRAF G466V (HA immunofluorescence, high content imaging); format: cell-based; conditions: T-Rex 293 HA-BRAF G466V; for DC50: half maximal degradation, read-out: BRaf G466V DC50; for Dmax: maximum degradation observed
T1 construct: expressed in transfected cells
Summary of the method: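 Cells expressing doxycycline-induced (0.75 ng/mL) HA-BRAF G466V were treated with compound at 30 nM to 3 pM in 0.1% DMSO for 24 hours at 37° C. After fixation and permeabilization, HA was immunostained and quantified by high content imaging to derive DC50 and Dmax.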

BRAF V600E = target: T2, BRAF V600E (Homo sapiens, UniProt P15056, V600E); assay: Cellular assay of target protein degradation, T-Rex 293 cells stably transfected with HA-BRAF_V600E (HA immunofluorescence, high content imaging); format: cell-based; conditions: T-Rex 293 HA-BRAF V600E; for DC50: half maximal degradation, read-out: BRaf V600E DC50; for Dmax: maximum degradation observed
T2 construct: expressed in transfected cells
Summary of the method: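 Doxycycline-induced (1 ng/mL) cells were treated 24 h at 37 °C with compound at 1 μM to 0.1 nM final in 0.1% DMSO. After fixation, permeabilization and blocking, anti-HA staining was imaged by high-content reading; DC50 and Dmax (% of control) were derived.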

T2 sequence (P15056 whole entry V600E): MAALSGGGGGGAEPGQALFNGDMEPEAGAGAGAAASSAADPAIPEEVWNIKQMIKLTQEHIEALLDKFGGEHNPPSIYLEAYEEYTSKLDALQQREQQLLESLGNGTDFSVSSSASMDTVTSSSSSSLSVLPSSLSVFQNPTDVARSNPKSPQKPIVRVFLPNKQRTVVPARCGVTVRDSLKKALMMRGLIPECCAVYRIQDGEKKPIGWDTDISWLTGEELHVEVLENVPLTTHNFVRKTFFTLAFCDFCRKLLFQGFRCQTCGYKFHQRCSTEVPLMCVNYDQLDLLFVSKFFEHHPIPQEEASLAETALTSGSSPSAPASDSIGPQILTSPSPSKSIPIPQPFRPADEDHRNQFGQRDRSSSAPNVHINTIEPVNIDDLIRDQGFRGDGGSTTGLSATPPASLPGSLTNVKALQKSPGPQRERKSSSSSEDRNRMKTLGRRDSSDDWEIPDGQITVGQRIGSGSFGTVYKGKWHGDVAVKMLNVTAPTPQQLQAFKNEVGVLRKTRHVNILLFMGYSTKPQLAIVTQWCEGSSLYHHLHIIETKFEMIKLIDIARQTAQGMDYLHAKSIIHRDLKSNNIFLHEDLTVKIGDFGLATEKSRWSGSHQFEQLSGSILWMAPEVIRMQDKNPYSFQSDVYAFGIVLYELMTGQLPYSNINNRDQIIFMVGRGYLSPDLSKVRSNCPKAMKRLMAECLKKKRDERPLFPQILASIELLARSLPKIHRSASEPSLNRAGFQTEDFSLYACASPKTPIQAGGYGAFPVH
T1 sequence (P15056 whole entry G466V): as the sequence (P15056 whole entry V600E) above, with G466V, E600V counted along it

| DC50 (BRAF G466V) [nM] | Dmax (BRAF G466V) [%] | DC50 (BRAF V600E) [nM] | Dmax (BRAF V600E) [%] | SMILES |
| --- | --- | --- | --- | --- |
| < 1 | > 70 | 5 to 50 | 35 to 70 | CCCS(=O)(=O)Nc1ccc(F)c(C(=O)c2c[nH]c3ncc(-c4ccc(N5CCC(CN6CCC(c7ccc8c(c7)CN([C@H]7CCC(=O)NC7=O)C8=O)CC6)CC5)cc4)cc23)c1F [Compound 234, N-{3-[5-(4-{4-[(4-{2-[(3S)-2,6-dioxopiperidin-3-yl]-1-oxo-2,3-dihydro-1H-isoindol-5-yl}piperidin-1-yl)methyl]piperidin-1-yl}phenyl)-1H-pyrrolo[2,3-b]pyridine-3-carbonyl]-2,4-difluorophenyl}propane-1-sulfonamide] |
| 1 to 10 | > 70 | 5 to 50 | 35 to 70 | CCCS(=O)(=O)Nc1ccc(F)c(C(=O)c2c[nH]c3ncc(-c4ccc(N5CCC(CN6CCC(c7ccc8c(c7)CN([C@@H]7CCC(=O)NC7=O)C8=O)CC6)CC5)cc4)cc23)c1F [Compound 235, N-{3-[5-(4-{4-[(4-{2-[(3R)-2,6-dioxopiperidin-3-yl]-1-oxo-2,3-dihydro-1H-isoindol-5-yl}piperidin-1-yl)methyl]piperidin-1-yl}phenyl)-1H-pyrrolo[2,3-b]pyridine-3-carbonyl]-2,4-difluorophenyl}propane-1-sulfonamide] |
| < 1 | > 70 | 5 to 50 | 35 to 70 | CCCS(=O)(=O)Nc1ccc(F)c(C(=O)c2c[nH]c3ncc(-c4ccc(N5CCC(CN6CCC(c7ccc8c(c7)CN(C7CCC(=O)NC7=O)C8=O)CC6)CC5)cc4)cc23)c1F (centres unmarked) [Compound 236, N-[3-(5-{4-[4-({4-[2-(2,6-dioxopiperidin-3-yl)-1-oxo-2,3-dihydro-1H-isoindol-5-yl]piperidin-1-yl}methyl)piperidin-1-yl]phenyl}-1H-pyrrolo[2,3-b]pyridine-3-carbonyl)-2,4-difluorophenyl]propane-1-sulfonamide] |
| < 1 | > 70 | 5 to 50 | 35 to 70 | CCCS(=O)(=O)Nc1ccc(F)c(C(=O)c2c[nH]c3ncc(-c4ccc(N5CC6(CN(CC7CCN(c8cc9c(c(OC)c8)C(=O)N([C@H]8CCC(=O)NC8=O)C9)CC7)C6)C5)cc4)cc23)c1F [Compound 237, N-{3-[5-(4-{6-[(1-{2-[(3S)-2,6-dioxopiperidin-3-yl]-7-methoxy-1-oxo-2,3-dihydro-1H-isoindol-5-yl}piperidin-4-yl)methyl]-2,6-diazaspiro[3.3]heptan-2-yl}phenyl)-1H-pyrrolo[2,3-b]pyridine-3-carbonyl]-2,4-difluorophenyl}propane-1-sulfonamide] |
| 1 to 10 | > 70 | 5 to 50 | 35 to 70 | CCCS(=O)(=O)Nc1ccc(F)c(C(=O)c2c[nH]c3ncc(-c4ccc(N5CC6(CN(CC7CCN(c8cc9c(c(OC)c8)C(=O)N([C@@H]8CCC(=O)NC8=O)C9)CC7)C6)C5)cc4)cc23)c1F [Compound 238, N-{3-[5-(4-{6-[(1-{2-[(3R)-2,6-dioxopiperidin-3-yl]-7-methoxy-1-oxo-2,3-dihydro-1H-isoindol-5-yl}piperidin-4-yl)methyl]-2,6-diazaspiro[3.3]heptan-2-yl}phenyl)-1H-pyrrolo[2,3-b]pyridine-3-carbonyl]-2,4-difluorophenyl}propane-1-sulfonamide] |
| 1 to 10 | > 70 | 5 to 50 | 35 to 70 | C[C@H]1C[C@@H](CN2CCC(c3ccc4c(c3)CN([C@H]3CCC(=O)NC3=O)C4=O)CC2)CCN1c1ccc(-c2cnc3[nH]cc(C(=O)c4c(F)ccc(NS(=O)(=O)N5CC[C@@H](F)C5)c4F)c3c2)cc1 [Compound 239, (3R)-N-[3-(5-{4-[(2S,4S)-4-[(4-{2-[(3S)-2,6-dioxopiperidin-3-yl]-1-oxo-2,3-dihydro-1H-isoindol-5-yl}piperidin-1-yl)methyl]-2-methylpiperidin-1-yl]phenyl}-1H-pyrrolo[2,3-b]pyridine-3-carbonyl)-2,4-difluorophenyl]-3-fluoropyrrolidine-1-sulfonamide] |
| 1 to 10 | > 70 | 5 to 50 | 35 to 70 | C[C@H]1C[C@@H](CN2CCC(c3ccc4c(c3)CN([C@@H]3CCC(=O)NC3=O)C4=O)CC2)CCN1c1ccc(-c2cnc3[nH]cc(C(=O)c4c(F)ccc(NS(=O)(=O)N5CC[C@@H](F)C5)c4F)c3c2)cc1 [Compound 240, (3R)-N-[3-(5-{4-[(2S,4S)-4-[(4-{2-[(3R)-2,6-dioxopiperidin-3-yl]-1-oxo-2,3-dihydro-1H-isoindol-5-yl}piperidin-1-yl)methyl]-2-methylpiperidin-1-yl]phenyl}-1H-pyrrolo[2,3-b]pyridine-3-carbonyl)-2,4-difluorophenyl]-3-fluoropyrrolidine-1-sulfonamide] |
| 1 to 10 | > 70 | 5 to 50 | 35 to 70 | C[C@@H]1C[C@H](CN2CCC(c3ccc4c(c3)CN([C@H]3CCC(=O)NC3=O)C4=O)CC2)CCN1c1ccc(-c2cnc3[nH]cc(C(=O)c4c(F)ccc(NS(=O)(=O)N5CC[C@@H](F)C5)c4F)c3c2)cc1 [Compound 241, (3R)-N-[3-(5-{4-[(2R,4R)-4-[(4-{2-[(3S)-2,6-dioxopiperidin-3-yl]-1-oxo-2,3-dihydro-1H-isoindol-5-yl}piperidin-1-yl)methyl]-2-methylpiperidin-1-yl]phenyl}-1H-pyrrolo[2,3-b]pyridine-3-carbonyl)-2,4-difluorophenyl]-3-fluoropyrrolidine-1-sulfonamide] |
| 1 to 10 | > 70 | 5 to 50 | 35 to 70 | C[C@@H]1C[C@H](CN2CCC(c3ccc4c(c3)CN([C@@H]3CCC(=O)NC3=O)C4=O)CC2)CCN1c1ccc(-c2cnc3[nH]cc(C(=O)c4c(F)ccc(NS(=O)(=O)N5CC[C@@H](F)C5)c4F)c3c2)cc1 [Compound 242, (3R)-N-[3-(5-{4-[(2R,4R)-4-[(4-{2-[(3R)-2,6-dioxopiperidin-3-yl]-1-oxo-2,3-dihydro-1H-isoindol-5-yl}piperidin-1-yl)methyl]-2-methylpiperidin-1-yl]phenyl}-1H-pyrrolo[2,3-b]pyridine-3-carbonyl)-2,4-difluorophenyl]-3-fluoropyrrolidine-1-sulfonamide] |
| 1 to 10 | > 70 | 5 to 50 | 35 to 70 | CCCS(=O)(=O)Nc1ccc(F)c(C(=O)c2c[nH]c3ncc(-c4ccc(N5CCN(CC6CCN(c7ccc8c(c7)CN([C@H]7CCC(=O)NC7=O)C8=O)CC6)CC5)cc4)cc23)c1F [Compound 243, N-{3-[5-(4-{4-[(1-{2-[(3S)-2,6-dioxopiperidin-3-yl]-1-oxo-2,3-dihydro-1H-isoindol-5-yl}piperidin-4-yl)methyl]piperazin-1-yl}phenyl)-1H-pyrrolo[2,3-b]pyridine-3-carbonyl]-2,4-difluorophenyl}propane-1-sulfonamide] |
| 1 to 10 | > 70 | 5 to 50 | 35 to 70 | CCCS(=O)(=O)Nc1ccc(F)c(C(=O)c2c[nH]c3ncc(-c4ccc(N5CCN(CC6CCN(c7ccc8c(c7)CN(C7CCC(=O)NC7=O)C8=O)CC6)CC5)cc4)cc23)c1F (centres unmarked) [Compound 244, N-[3-(5-{4-[4-({1-[2-(2,6-dioxopiperidin-3-yl)-1-oxo-2,3-dihydro-1H-isoindol-5-yl]piperidin-4-yl}methyl)piperazin-1-yl]phenyl}-1H-pyrrolo[2,3-b]pyridine-3-carbonyl)-2,4-difluorophenyl]propane-1-sulfonamide] |
| 1 to 10 | > 70 | 5 to 50 | 35 to 70 | CCCS(=O)(=O)Nc1ccc(F)c(C(=O)c2c[nH]c3ncc(-c4ccc(N5CCC(CN6CCN(c7ccc8c(c7)CN([C@H]7CCC(=O)NC7=O)C8=O)CC6)CC5)cc4)cc23)c1F [Compound 245, N-{3-[5-(4-{4-[(4-{2-[(3S)-2,6-dioxopiperidin-3-yl]-1-oxo-2,3-dihydro-1H-isoindol-5-yl}piperazin-1-yl)methyl]piperidin-1-yl}phenyl)-1H-pyrrolo[2,3-b]pyridine-3-carbonyl]-2,4-difluorophenyl}propane-1-sulfonamide] |
| 1 to 10 | > 70 | 5 to 50 | 35 to 70 | O=C1CCC(N2Cc3cc(N4CC5(CN(CC6CCN(c7ccc(-c8cnc9[nH]cc(C(=O)c%10c(F)ccc(NS(=O)(=O)N%11CCC(F)(F)C%11)c%10F)c9c8)cc7)CC6)C5)C4)ccc3C2=O)C(=O)N1 (centres unmarked) [Compound 246, N-[3-(5-{4-[4-({6-[2-(2,6-dioxopiperidin-3-yl)-1-oxo-2,3-dihydro-1H-isoindol-5-yl]-2,6-diazaspiro[3.3]heptan-2-yl}methyl)piperidin-1-yl]phenyl}-1H-pyrrolo [2,3-b]pyridine-3-carbonyl)-2,4-difluorophenyl]-3,3-difluoropyrrolidine-1-sulfonamide] |
| 1 to 10 | > 70 | 5 to 50 | < 35 | COc1cc(N2CCC(CN3CC4(C3)CN(c3ccc(-c5cnc6[nH]cc(C(=O)c7c(F)ccc(NS(=O)(=O)N8CCC(F)(F)C8)c7F)c6c5)cc3)C4)CC2)cc2c1C(=O)N(C1CCC(=O)NC1=O)C2 (centres unmarked) [Compound 247, N-[3-(5-{4-[6-({1-[2-(2,6-dioxopiperidin-3-yl)-7-methoxy-1-oxo-2,3-dihydro-1H-isoindol-5-yl]piperidin-4-yl}methyl)-2,6-diazaspiro[3.3]heptan-2-yl]phenyl}-1H-pyrrolo[2,3-b]pyridine-3-carbonyl)-2,4-difluorophenyl]-3,3-difluoropyrrolidine-1-sulfonamide] |
